Results: patent US9657351B2, “MRNA-based gene expression for personalizing patient cancer therapy with an MDM2 antagonist” (Hoffmann-La Roche Inc., priority 2013, dated 2017)

Legend:
Assay in all cases: COMPOUND A In Vitro Assay
Format in all cases: cell-based
[1] = test system: A549; settings: Homo sapiens
Summary of the method: (§1)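 Screening format: high throughput. Agent: RG7112 (MDM2 antagonist). Cells: diverse human cancer lines. Derived value: IC50, with the cut-offs sensitive <=1 and resistant >=10.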

[2] = test system: ARH-77; settings: Homo sapiens, Lymphocyte B, peripheral blood, TP53 Mutant
Summary of the method: as §1

[3] = test system: BT-474; settings: Homo sapiens, Breast, mammary gland, TP53 Mutant
Summary of the method: as §1

[4] = test system: CEM/C2; settings: Homo sapiens, Lymphocyte T, peripheral blood, TP53 Mutant
Summary of the method: as §1

[5] = test system: CMK-11-5; settings: Homo sapiens, Lymphocyte, TP53 Mutant
Summary of the method: as §1

[6] = test system: DLD-1; settings: Homo sapiens, Intestine, large, colon, TP53 Mutant
Summary of the method: as §1

[7] = test system: F-36P; settings: Homo sapiens, Myeloblast, TP53 Mutant
Summary of the method: as §1

[8] = test system: HCC1143; settings: Homo sapiens, Breast, mammary gland, TP53 Mutant
Summary of the method: as §1

[9] = test system: HCC1500; settings: Homo sapiens, Breast, mammary gland, TP53 Wild type
Summary of the method: as §1

[10] = test system: HL-60; settings: Homo sapiens, Blood, TP53 Mutant
Summary of the method: as §1

[11] = test system: HPAC; settings: Homo sapiens, Pancreas, TP53 Mutant
Summary of the method: as §1

[12] = test system: Hs 766T; settings: Homo sapiens, Hs766T, Pancreas, TP53 Mutant
Summary of the method: as §1

[13] = test system: KATO-III; settings: Homo sapiens, Stomach, TP53 Mutant
Summary of the method: as §1

[14] = test system: KELLY; settings: Homo sapiens, Brain, TP53 Mutant
Summary of the method: as §1

[15] = test system: KMS-11; settings: Homo sapiens, Lymphocyte, TP53 Wild type
Summary of the method: as §1

[16] = test system: KYSE-520; settings: Homo sapiens, Esophagus, TP53 Mutant
Summary of the method: as §1

[17] = test system: LS1034; settings: Homo sapiens, LS-1034, Intestine, large, caecum, TP53 Mutant
Summary of the method: as §1

[18] = test system: MDA-MB-134-VI; settings: Homo sapiens, Breast, mammary gland, TP53 Mutant
Summary of the method: as §1

[19] = test system: MDA-MB-453; settings: Homo sapiens, Breast, mammary gland, TP53 Mutant
Summary of the method: as §1

[20] = test system: MEG-01; settings: Homo sapiens, Leukemia, chronic myeloid, TP53 Mutant
Summary of the method: as §1

[21] = test system: MFE-280; settings: Homo sapiens, Uterus, endometrium, TP53 Mutant
Summary of the method: as §1

[22] = test system: MKN-1; settings: Homo sapiens, Muscle, smooth, stomach, TP53 Mutant
Summary of the method: as §1

[23] = test system: MKN-28; settings: Homo sapiens, Stomach, TP53 Mutant
Summary of the method: as §1

[24] = test system: NCI-H1048; settings: Homo sapiens, Lung, TP53 Mutant
Summary of the method: as §1

[25] = test system: NCI-H1793; settings: Homo sapiens, Lung, TP53 Mutant
Summary of the method: as §1

[26] = test system: NCI-H2030; settings: Homo sapiens, Lung, TP53 Mutant
Summary of the method: as §1

[27] = test system: NCI-H209; settings: Homo sapiens, Lung, TP53 Mutant
Summary of the method: as §1

[28] = test system: NCI-H661; settings: Homo sapiens, Lung, TP53 Mutant
Summary of the method: as §1

[29] = test system: NCI-H82; settings: Homo sapiens, Lung, TP53 Wild type
Summary of the method: as §1

[30] = test system: NCI-H838; settings: Homo sapiens, Lung, TP53 Mutant
Summary of the method: as §1

[31] = test system: NCI-H929; settings: Homo sapiens, Lymphocyte B, bone marrow, TP53 Wild type
Summary of the method: as §1

[32] = test system: NOMO-1; settings: Homo sapiens, Bone marrow, TP53 Mutant
Summary of the method: as §1

[33] = test system: Raji; settings: Homo sapiens, Lymphocyte B, TP53 Mutant
Summary of the method: as §1

[34] = test system: SCaBER; settings: Homo sapiens, Urinary, bladder, TP53 Mutant
Summary of the method: as §1

[35] = test system: SK-MEL-30; settings: Homo sapiens, Skin, TP53 Mutant
Summary of the method: as §1

[36] = test system: SNU-16; settings: Homo sapiens, Stomach, TP53 Mutant
Summary of the method: as §1

[37] = test system: SW1417; settings: Homo sapiens, Intestine, large, colon, TP53 Mutant
Summary of the method: as §1

[38] = test system: T84; settings: Homo sapiens, Intestine, large, colon, TP53 Mutant
Summary of the method: as §1

SMILES: CCOc1cc(C(C)(C)C)ccc1C1=N[C@@](C)(c2ccc(Cl)cc2)[C@@](C)(c2ccc(Cl)cc2)N1C(=O)N1CCN(CCCS(C)(=O)=O)CC1 [COMPOUND A]
- IC50 ([1]; A549, A549, Lung, TP53 Wild type): 0.86 µM
- IC50 ([1]; A549, A549 cells): 0.9 µM
- IC50 [2]: 17 µM
- IC50 [3]: 19 µM
- IC50 [4]: 9.3 µM
- IC50 [5]: 9.6 µM
- IC50 [6]: 5.1 µM
- IC50 [7]: 23 µM
- IC50 [8]: 12 µM
- IC50 [9]: 1 µM
- IC50 [10]: 7 µM
- IC50 [11]: 4.6 µM
- IC50 [12]: 17 µM
- IC50 [13]: 9.7 µM
- IC50 [14]: 15 µM
- IC50 [15]: 12 µM
- IC50 [16]: 10 µM
- IC50 [17]: 5.7 µM
- IC50 [18]: 38 µM
- IC50 [19]: 20 µM
- IC50 [20]: 17 µM
- IC50 [21]: 23 µM
- IC50 [22]: 15 µM
- IC50 [23]: 8.1 µM
- IC50 [24]: 9.4 µM
- IC50 [25]: 10 µM
- IC50 [26]: 9.2 µM
- IC50 [27]: 11 µM
- IC50 [28]: 11 µM
- IC50 [29]: 4.9 µM
- IC50 [30]: 14 µM
- IC50 [31]: 0.3 µM
- IC50 [32]: 6.3 µM
- IC50 [33]: 3 µM
- IC50 [34]: 8.5 µM
- IC50 [35]: 19 µM
- IC50 [36]: 10 µM
- IC50 [37]: 9.9 µM
- IC50 [38]: 5.3 µM
